What was measured:
Format in all cases: cell-based
[1] = molecular target: KDR (Homo sapiens (Human), UniProt P35968); assay: KDR autophosphorylation ELISA in HUVEC cells; conditions: cellular, VEGF165-stimulated, phospho-KDR ELISA
Summary of the method: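 Serum-starved (24 h) HUVECs were pre-treated with compound (8-point dose curve, 0.3% DMSO final) for 1 h, then stimulated with 100 ng/mL human VEGF165 for 5 min. Lysate phospho-KDR was quantified by ELISA against a phospho-KDR standard. IC50 came from a 4-parameter logistic fit, normalized to stimulated-DMSO (100%) and unstimulated (0%) controls.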

[2] = molecular target: AXL (Homo sapiens (Human), UniProt P30530); assay: AXL autophosphorylation ELISA in A-172 cells; conditions: cellular, Gas6-stimulated, phospho-AXL ELISA
Summary of the method: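 A-172 glioblastoma cells, serum-starved 24 h, got 8-point compound dilutions (0.3% DMSO) for 1 h, then 1 μg/mL human Gas6 for 15 min. Phospho-AXL in lysates was quantified by ELISA against a standard, normalized between DMSO and reference-inhibitor controls; IC50 by 4-parameter logistic fit.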

[3] = molecular target: Mer (Homo sapiens (Human), UniProt Q12866); assay: Mer autophosphorylation ELISA in transient transfected 293A cells; conditions: cellular, MERTK-transfected 293A cells, phospho-Mer ELISA
Experimental: 293A cells (Thermo Fisher #R70507) were seeded at 1.5×10^6 cells/well onto 100 mm dish (Greiner #664169), in DMEM (Thermo Fisher #11995-040) containing 10% FBS (Thermo Fisher #26140-079), 1% MEM NEAA (Thermo Fisher #11140-050), 1% GlutaMax (Thermo Fisher #35050-061), and 1% Penicillin Streptomycin (Thermo Fisher #15140-122). 293A cells were incubated at 37° C., 5% CO2 for 24 h and then transfected with 6 μg MERTK DNA (Genecopoeia #EX-Z8208-M02) using TransIT LT1 transfection reagent (Mirus-Bio #MIR2305). After 24 h incubation, the transfected 293A cells were seeded at 1×10^5 cells/well onto 96-well plates (Corning #3904) in DMEM growth medium overnight. Test compounds were serially diluted to produce an 8-point dose curve in fresh serum-free medium to a final concentration of 0.3% DMSO (vehicle) and added to the cells and incubated for 1 h. Cells were then immediately lysed with 150 μL of cold IX lysis buffer [20 mM Tris, 137 mM sodium chloride, 2 mM EDTA, 10% glycerol, 1% NP-40 alternative, 1 mM activated sodium orthovanadate, 1 mM PefaBloc SC (Sigma-Aldrich #11429868001), protease/phosphatase inhibitor tablet (Thermo Fisher #A32959)]. Lysates were clarified by centrifugation and 50 μL/well added into the human phospho-Mer DuoSet IC ELISA (R&D Systems #DYC2579-2). Assay was performed according to manufacturer's instructions and sample phospho-Mer concentrations were extrapolated using human phospho-Mer control (R&D Systems #841793) as a standard. Positive control wells (100% activity) contained DMSO-treated cell lysates. Negative control wells (0% activity) contained reference inhibitor-treated cell lysates. IC50 values were calculated by nonlinear regression analysis using a 4-parameter logistic curve fit in ActivityBase XE (IDBS).

[4] = molecular target: Met (Homo sapiens (Human), UniProt P08581); assay: Met autophosphorylation ELISA in PC-3 cells; conditions: cellular, HGF-stimulated, phospho-Met ELISA, read-out: c-Met IC50
Summary of the method: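 Serum-starved PC-3 cells treated 1 h with compound (8-point series, 0.3% DMSO), then stimulated 10 min with 100 ng/mL HGF. Phospho-Met (panTyr) quantified in lysates by sandwich ELISA; IC50 from 4-parameter logistic fit against DMSO and reference-inhibitor controls.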

Met, sequence (P08581 25-1390): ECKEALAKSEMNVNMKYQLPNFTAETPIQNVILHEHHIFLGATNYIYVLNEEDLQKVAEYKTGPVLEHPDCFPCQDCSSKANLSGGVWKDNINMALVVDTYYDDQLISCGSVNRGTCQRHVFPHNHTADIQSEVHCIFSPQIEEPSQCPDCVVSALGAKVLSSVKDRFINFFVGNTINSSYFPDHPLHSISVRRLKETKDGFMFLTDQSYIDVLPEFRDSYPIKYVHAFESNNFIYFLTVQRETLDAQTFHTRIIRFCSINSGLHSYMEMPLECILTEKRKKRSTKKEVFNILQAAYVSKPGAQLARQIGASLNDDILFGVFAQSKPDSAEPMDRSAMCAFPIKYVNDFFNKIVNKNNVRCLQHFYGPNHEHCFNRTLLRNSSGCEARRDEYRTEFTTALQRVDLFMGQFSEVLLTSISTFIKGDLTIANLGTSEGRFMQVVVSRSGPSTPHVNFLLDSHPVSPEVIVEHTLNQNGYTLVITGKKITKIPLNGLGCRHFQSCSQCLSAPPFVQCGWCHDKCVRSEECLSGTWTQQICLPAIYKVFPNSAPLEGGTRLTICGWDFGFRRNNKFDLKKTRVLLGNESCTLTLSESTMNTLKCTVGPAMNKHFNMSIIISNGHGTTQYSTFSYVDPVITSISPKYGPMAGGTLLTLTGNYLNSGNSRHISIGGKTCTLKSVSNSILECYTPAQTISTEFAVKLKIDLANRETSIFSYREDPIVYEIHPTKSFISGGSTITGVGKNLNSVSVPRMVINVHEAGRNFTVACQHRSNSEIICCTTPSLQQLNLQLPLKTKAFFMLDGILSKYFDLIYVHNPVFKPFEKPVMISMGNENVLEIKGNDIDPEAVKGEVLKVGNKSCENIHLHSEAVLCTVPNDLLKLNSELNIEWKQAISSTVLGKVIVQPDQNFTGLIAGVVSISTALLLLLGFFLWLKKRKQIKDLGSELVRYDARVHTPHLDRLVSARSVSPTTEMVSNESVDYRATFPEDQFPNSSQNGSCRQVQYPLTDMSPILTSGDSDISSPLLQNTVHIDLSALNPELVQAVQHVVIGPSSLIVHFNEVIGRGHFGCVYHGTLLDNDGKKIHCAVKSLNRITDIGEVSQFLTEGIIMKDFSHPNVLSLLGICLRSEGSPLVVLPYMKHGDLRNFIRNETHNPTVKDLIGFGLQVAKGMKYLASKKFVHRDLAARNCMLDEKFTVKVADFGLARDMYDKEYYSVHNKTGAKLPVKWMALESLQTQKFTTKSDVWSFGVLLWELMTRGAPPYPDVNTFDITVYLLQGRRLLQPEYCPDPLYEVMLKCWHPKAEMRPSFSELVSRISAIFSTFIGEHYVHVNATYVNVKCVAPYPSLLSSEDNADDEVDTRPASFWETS
KDR, sequence (P35968 20-1356): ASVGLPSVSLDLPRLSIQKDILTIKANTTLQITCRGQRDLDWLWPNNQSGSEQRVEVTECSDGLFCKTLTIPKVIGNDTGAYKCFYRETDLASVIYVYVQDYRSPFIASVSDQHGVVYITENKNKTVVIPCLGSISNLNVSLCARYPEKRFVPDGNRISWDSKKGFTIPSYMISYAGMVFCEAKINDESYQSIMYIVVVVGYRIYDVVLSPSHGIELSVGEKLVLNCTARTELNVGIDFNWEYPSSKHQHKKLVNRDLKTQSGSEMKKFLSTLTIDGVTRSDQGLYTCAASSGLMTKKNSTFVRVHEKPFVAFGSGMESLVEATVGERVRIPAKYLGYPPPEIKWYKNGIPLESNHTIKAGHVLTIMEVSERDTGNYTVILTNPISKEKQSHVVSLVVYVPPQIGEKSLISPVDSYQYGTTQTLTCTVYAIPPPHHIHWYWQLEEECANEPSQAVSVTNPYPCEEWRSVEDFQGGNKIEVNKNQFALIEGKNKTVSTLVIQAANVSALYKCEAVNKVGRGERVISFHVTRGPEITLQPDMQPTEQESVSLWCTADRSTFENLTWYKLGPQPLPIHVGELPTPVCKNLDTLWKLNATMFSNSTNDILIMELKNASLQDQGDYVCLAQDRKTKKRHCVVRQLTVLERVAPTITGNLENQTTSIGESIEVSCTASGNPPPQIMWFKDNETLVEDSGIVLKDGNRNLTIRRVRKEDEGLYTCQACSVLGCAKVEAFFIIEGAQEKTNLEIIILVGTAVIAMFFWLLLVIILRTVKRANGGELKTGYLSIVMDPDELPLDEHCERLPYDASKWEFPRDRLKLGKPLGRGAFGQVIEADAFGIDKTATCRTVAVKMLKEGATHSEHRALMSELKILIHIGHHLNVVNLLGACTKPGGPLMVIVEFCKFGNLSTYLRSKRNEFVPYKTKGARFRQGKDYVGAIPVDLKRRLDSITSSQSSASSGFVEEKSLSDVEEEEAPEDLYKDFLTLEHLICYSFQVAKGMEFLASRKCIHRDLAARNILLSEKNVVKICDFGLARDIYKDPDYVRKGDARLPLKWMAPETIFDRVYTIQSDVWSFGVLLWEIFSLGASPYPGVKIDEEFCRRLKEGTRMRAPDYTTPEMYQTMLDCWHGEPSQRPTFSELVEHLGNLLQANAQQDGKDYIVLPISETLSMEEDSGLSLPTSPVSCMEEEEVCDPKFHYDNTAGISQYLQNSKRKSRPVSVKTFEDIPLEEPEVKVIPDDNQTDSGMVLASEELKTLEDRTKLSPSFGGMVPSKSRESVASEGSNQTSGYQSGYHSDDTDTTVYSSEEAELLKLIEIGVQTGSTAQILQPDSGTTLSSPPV
Mer, sequence (Q12866 21-999): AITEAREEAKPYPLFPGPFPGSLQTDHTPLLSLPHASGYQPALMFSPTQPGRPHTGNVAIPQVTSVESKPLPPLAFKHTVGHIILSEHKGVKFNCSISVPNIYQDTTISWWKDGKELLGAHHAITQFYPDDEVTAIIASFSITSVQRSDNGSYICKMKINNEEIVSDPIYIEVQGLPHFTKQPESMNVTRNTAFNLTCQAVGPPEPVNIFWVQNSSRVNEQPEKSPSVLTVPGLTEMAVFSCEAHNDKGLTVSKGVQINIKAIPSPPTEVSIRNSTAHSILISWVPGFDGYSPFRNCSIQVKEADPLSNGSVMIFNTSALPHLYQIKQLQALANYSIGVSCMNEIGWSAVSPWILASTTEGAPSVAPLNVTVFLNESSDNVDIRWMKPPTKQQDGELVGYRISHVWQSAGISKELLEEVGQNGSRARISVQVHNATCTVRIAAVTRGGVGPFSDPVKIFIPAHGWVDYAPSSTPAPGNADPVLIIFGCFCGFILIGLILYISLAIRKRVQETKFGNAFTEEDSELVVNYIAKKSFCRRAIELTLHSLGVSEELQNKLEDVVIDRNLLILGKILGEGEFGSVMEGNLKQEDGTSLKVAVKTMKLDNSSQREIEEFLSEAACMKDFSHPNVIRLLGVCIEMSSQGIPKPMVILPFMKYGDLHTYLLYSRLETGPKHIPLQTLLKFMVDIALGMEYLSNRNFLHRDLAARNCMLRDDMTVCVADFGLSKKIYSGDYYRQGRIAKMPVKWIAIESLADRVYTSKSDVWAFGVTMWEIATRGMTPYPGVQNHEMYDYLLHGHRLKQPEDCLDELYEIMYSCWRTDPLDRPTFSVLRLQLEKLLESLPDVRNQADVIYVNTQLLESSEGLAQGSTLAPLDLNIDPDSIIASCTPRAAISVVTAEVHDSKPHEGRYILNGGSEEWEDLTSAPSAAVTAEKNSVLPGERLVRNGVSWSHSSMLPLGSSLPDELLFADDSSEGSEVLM
AXL, sequence (P30530 26-894): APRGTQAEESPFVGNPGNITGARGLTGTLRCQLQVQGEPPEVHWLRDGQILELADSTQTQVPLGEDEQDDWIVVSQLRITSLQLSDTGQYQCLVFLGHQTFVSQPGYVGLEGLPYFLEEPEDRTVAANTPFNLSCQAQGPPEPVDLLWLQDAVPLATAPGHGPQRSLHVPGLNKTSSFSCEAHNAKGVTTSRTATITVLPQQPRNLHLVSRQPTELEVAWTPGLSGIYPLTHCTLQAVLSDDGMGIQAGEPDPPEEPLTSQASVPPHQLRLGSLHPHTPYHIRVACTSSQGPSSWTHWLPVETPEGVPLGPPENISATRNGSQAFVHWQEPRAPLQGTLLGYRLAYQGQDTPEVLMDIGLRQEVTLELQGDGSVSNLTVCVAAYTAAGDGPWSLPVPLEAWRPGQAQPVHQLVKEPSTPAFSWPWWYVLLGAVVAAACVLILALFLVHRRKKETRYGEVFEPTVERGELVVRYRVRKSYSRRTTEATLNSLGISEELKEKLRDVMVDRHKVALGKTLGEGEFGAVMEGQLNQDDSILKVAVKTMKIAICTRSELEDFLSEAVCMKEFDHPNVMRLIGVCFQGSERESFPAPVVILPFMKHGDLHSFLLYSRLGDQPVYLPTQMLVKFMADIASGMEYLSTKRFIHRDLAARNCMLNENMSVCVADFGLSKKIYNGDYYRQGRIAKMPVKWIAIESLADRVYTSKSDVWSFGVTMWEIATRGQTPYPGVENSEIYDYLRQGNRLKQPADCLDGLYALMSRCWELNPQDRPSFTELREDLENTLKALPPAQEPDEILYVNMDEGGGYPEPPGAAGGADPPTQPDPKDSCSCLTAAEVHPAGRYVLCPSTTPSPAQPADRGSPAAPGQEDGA

| Structure (SMILES) | IC50 [1] | IC50 [2] | IC50 [3] | IC50 [4] |
| --- | --- | --- | --- | --- |
| COc1nc2c(Oc3c(F)cc(NC(=O)C4(C(=O)Nc5ccc(F)cc5)CC4)cc3F)ncnc2cc1OCCCN1CCOCC1 [Compound 76, 1-N′-[3,5-difluoro-4-[6-methoxy-7-(3-morpholin-4-ylpropoxy)pyrido[3,2-d]pyrimidin-4-yl]oxyphenyl]-1-N-(4-fluorophenyl)cyclo-propane-1,1-dicarboxamide] | 10 to 100 nM | ≤ 10 nM | ≤ 10 nM | 10 to 100 nM |
| COc1cc2ncnc(Oc3cc(F)c(NC(=O)C4(C(=O)Nc5ccc(F)cc5)CC4)cc3F)c2nc1OC [Compound 35, 1-N′-[4-(6,7-dimethoxypyrido[3,2-d]pyrimidin-4-yl)oxy-2,5-difluorophenyl]-1-N-(4-fluorophenyl)cyclo-propane-1,1-dicarboxamide] | 10 to 100 nM | ≤ 10 nM | ≤ 10 nM | ≤ 10 nM |
| COCCOc1cc2ncnc(Oc3ccc(NC(=O)C4(C(=O)Nc5ccc(F)cc5)CC4)c(F)c3F)c2nc1OC [Compound 82, 1-N′-[2,3-difluoro-4-[6-methoxy-7-(2-methoxy-ethoxy)pyrido[3,2-d]pyrimidin-4-yl]oxyphenyl]-1-N-(4-fluorophenyl)cyclo-propane-1,1-dicarboxamide] | ≤ 10 nM | ≤ 10 nM | 10 to 100 nM | 10 to 100 nM |
| COc1nc2c(Oc3ccc(NC(=O)C4(C(=O)Nc5ccc(F)cc5)CC4)cc3C#N)ncnc2cc1OCCCN1CCOCC1 [Compound 75, 1-N′-[3-cyano-4-[6-methoxy-7-(3-morpholin-4-ylpropoxy)pyrido[3,2-d]pyrimidin-4-yl]oxyphenyl]-1-N-(4-fluorophenyl)cyclo-propane-1,1-dicarboxamide] | 10 to 100 nM | 10 to 100 nM | 10 to 100 nM | 10 to 100 nM |
| COc1nc2c(Oc3ccc(NC(=O)C4(C(=O)Nc5ccc(F)cc5)CC4)c(Cl)c3)ncnc2cc1OCCCN1CCOCC1 [Compound 70, 1-N′-[2-chloro-4-[6-methoxy-7-(3-morpholin-4-ylpropoxy)pyrido[3,2-d]pyrimidin-4-yl]oxyphenyl]-1-N-(4-fluorophenyl)cyclo-propane-1,1-dicarboxamide] | 100 to 300 nM | 10 to 100 nM | 10 to 100 nM | 100 to 300 nM |
| COc1nc2c(Oc3ccc(NC(=O)C4(C(=O)Nc5ccc(F)cc5)CC4)c(F)c3F)ncnc2cc1OCCCN1CCOCC1 [Compound 73, 1-N′-[2,3-difluoro-4-[6-methoxy-7-(3-morpholin-4-ylpropoxy)pyrido[3,2-d]pyrimidin-4-yl]oxyphenyl]-1-N-(4-fluoro-phenyl)cyclopropane-1,1-dicarboxamide] | ≤ 10 nM | ≤ 10 nM | ≤ 10 nM | 10 to 100 nM |
| COCCOc1cc2nccc(Oc3ccc(NC(=O)C4(C(=O)Nc5ccc(F)cc5)CC4)cc3F)c2nc1OC [Compound 150, 1-N′-[3-fluoro-4-[[6-methoxy-7-(2-methoxyethoxy)-1,5-naphthyridin-4-yl]oxy]phenyl]-1-N-(4-fluoro-phenyl)cyclopropane-1,1-dicarboxamide] | ≤ 10 nM | ≤ 10 nM | ≤ 10 nM | ≤ 10 nM |

Next, values leading:

| IC50 [1] | IC50 [2] | IC50 [3] | IC50 [4] | Structure (SMILES) |
| --- | --- | --- | --- | --- |
| ≤ 10 nM | 10 to 100 nM | 10 to 100 nM | 10 to 100 nM | Cn1cc(-c2cc3ncnc(Oc4ccc(NC(=O)C5(C(=O)Nc6ccc(F)cc6)CC5)cc4)c3cn2)cn1 [Compound 130, 1-N′-(4-fluorophenyl)-1-N-[4-[7-(1-methylpyrazol-4-yl)pyrido[4,3-d]pyrimidin-4-yl]oxyphenyl]cyclopropane-1,1-dicarboxamide] |
| 10 to 100 nM | ≤ 10 nM | 10 to 100 nM | 10 to 100 nM | COc1cc2ncnc(Oc3ccc(NC(=O)C4(C(=O)Nc5ccc(F)cc5)CC4)c(F)c3)c2nc1OC [Compound 31, 1-N′-[4-(6,7-dimethoxy-pyrido[3,2-d]pyrimidin-4-yl)oxy-2-fluorophenyl]-1-N-(4-fluorophenyl)cyclo-propane-1,1-dicarboxamide] |
| ≤ 10 nM | 10 to 100 nM | ≤ 10 nM | 10 to 100 nM | COCCOc1cc2ncnc(Oc3ccc(NC(=O)C4(C(=O)Nc5ccc(F)cc5)CC4)cc3Cl)c2nc1OC [Compound 80, 1-N′-[3-chloro-4-[6-methoxy-7-(2-methoxyethoxy)pyrido[3,2-d]pyrimidin-4-yl]oxy-phenyl]-1-N-(4-fluorophenyl)cyclo-propane-1,1-dicarboxamide] |
| 10 to 100 nM | 10 to 100 nM | 10 to 100 nM | 100 to 300 nM | COc1nc2c(Oc3ccc(NC(=O)C4(C(=O)Nc5ccc(F)cc5)CC4)cc3C)ncnc2cc1OCCCN1CCOCC1 [Compound 68, 1-N-(4-fluorophenyl)-1-N′-[4-[6-methoxy-7-(3-morpholin-4-ylpropoxy)pyrido[3,2-d]pyrimidin-4-yl]oxy-3-methylphenyl]cyclopropane-1,1-dicarboxamide] |

From US11708367B2, “Compounds for the treatment of kinase-dependent disorders” (Exelixis, Inc., priority 2018, dated 2023)
